# Source: ChEMBL document CHEMBL1151217, “New cytotoxic terpenoids from the wood of Vepris punctata from the Madagascar Rainforest” (J Nat Prod, 2004)
# System: A2780
# Assay: Cytotoxicity against human A2780 cells
# Assay type: functional, cell-based
row,Compound,IC50
1,C=C(C)[C@@H]1CC[C@]2(C)CC[C@]3(C)[C@H](CC[C@@H]4[C@@]5(C)CC[C@H](O)C(C)(C)[C@@H]5CC[C@]43C)[C@@H]12 [LUPEOL],26.4 µg/mL
2,CC1(C)CC[C@]2(C)CC=C3[C@]4(C)CC[C@H]5C(C)(C)[C@@H](O)CC[C@]5(C)[C@H]4CC[C@@]3(C)[C@@H]2C1 [TARAXEROL],21.8 µg/mL
3,CC1(C)CC[C@]2(C)CC=C3[C@]4(C)CC[C@H]5C(C)(C)[C@H](O)CC[C@]5(C)[C@H]4CC[C@@]3(C)[C@@H]2C1,24.4 µg/mL
4,CC(C)=C1C/C=C(\C)CC/C=C(\C)CC1,6.4 µg/mL
5,C=C(C)[C@@H]1CC[C@]2(C)CC[C@]3(C)[C@H](CC[C@@H]4[C@@]5(C)CC[C@H](OC(C)=O)C(C)(C)[C@@H]5CC[C@]43C)[C@@H]12 [LUPENYL ACETATE],22.6 µg/mL
6,CC1=C2C/C=C(\C)CC/C=C(\C)C[C@@H]2OC1=O [GLECHOMANOLIDE],5.3 µg/mL
7,CC1=C2C[C@H]3O[C@]3(C)CC[C@H]3O[C@@]3(C)C[C@@H]2OC1=O,3.8 µg/mL
8,C=C[C@]1(C)C[C@@H]2OC(=O)C(C)=C2C[C@H]1C(=C)C [ISOGERMAFURENOLIDE],4.5 µg/mL
9,C[C@H]1[C@H](C)CC[C@]2(C)CC[C@]3(C)C(=CC[C@@H]4[C@@]5(C)CC[C@H](O)C(C)(C)[C@@H]5CC[C@]43C)[C@H]12,20.6 µg/mL
10,CC(=O)O[C@H]1O[C@H]2C[C@@]13CC=C1[C@]4(C)[C@@H]5O[C@@H]5[C@H]5C(C)(C)[C@H](O)CC[C@]5(C)[C@H]4CC[C@@]1(C)[C@@H]3CC2(C)C,21.5 µg/mL
